From US10308916B2, “Omega-transaminase mutants with activity improvements toward ketones and methods for producing optically pure amines” (Industry-Academic Cooperation Foundation, Yonsei University, priority 2015, dated 2019)
Like-named read-outs stand apart in the source and are kept apart here.

What was measured:
Format in all cases: biochemical
[1] = tested on: OATA W58A
[2] = tested on: OATA L57A/W58A
[3] = tested on: OATA L57A/W58A/V154A
[4] = tested on: OATA W58A; remark: listed apart in the source
[5] = tested on: OATA W58L
[6] = tested on: OATA L57A
[7] = tested on: OATA L57A/W58A/V154A; remark: listed apart in the source
[8] = tested on: OATA L57A/W58A; remark: listed apart in the source
[9] = tested on: OATA W58L; remark: listed apart in the source
[10] = tested on: OATA L57Q/W58N/I261L
[11] = tested on: OATA W58D/I261A
[12] = tested on: OATA L57C/W58L/I261A

| SMILES | Relative reactivity, OATA W58A [1] [%] | Relative activity, OATA L57A/W58A [2] [%] | Relative activity, OATA L57A/W58A/V154A [3] | Relative reactivity, OATA W58L [5] [%] | Relative activity, OATA L57A [6] [%] | Relative activity, OATA L57A/W58A/V154A [7] [%] | Relative activity, OATA L57A/W58A [8] [%] | other results |
| --- | --- | --- | --- | --- | --- | --- | --- | --- |
| CC(C)C(N)c1ccccc1 (racemic) [2-Methyl-1-phenylpropan-1-amine] | 3 | 12 | 167% | 2 |  |  |  | relative activity to (S)-α-MBA measured with OATA WT, OATA W58A [4]: 6% |
| CCC(=O)C(=O)O [2-oxobutanoic acid] |  |  |  |  | 34 | 852 | 290 | fold increase in reaction rate compared to OATA L57A [7]: 25; fold increase in reaction rate compared to OATA L57A [8]: 8 |
| CCCCC(=O)C(=O)O [2-oxohexanoic acid] |  |  |  |  | 15 | 114 | 49 |  |
| CCCCCCC(=O)C(=O)O [2-oxooctanoic acid] |  |  |  |  | 2 | 21 | 7 |  |
| CCCC(=O)C(=O)O [2-oxopentanoic acid] |  |  |  |  | 40 | 206 | 103 |  |
| C[C@H](N)c1cccc2ccccc12 [(S)-1-(1-naphthyl)ethylamine] | 0.7 | 18 | 60% | 2 |  |  |  |  |
| CC[C@H](N)c1ccccc1 [(S)-α-ethylbenzylamine] | 44 | 202 | 707% | 20 |  |  |  |  |
| C[C@H](N)c1ccccc1 [(S)-α-methylbenzylamine] | 100 | 621 | 1,190%^ | 100 |  |  |  | Fold-increase in kcat/KM [9]: 170; fold decrease in KM (tighter binding) [9]: 207; Relative activity, OATA L57Q/W58N/I261L [10]: 262%; Relative activity, OATA W58D/I261A [11]: 17%; Relative activity, OATA L57C/W58L/I261A [12]: 900% |
| CCC[C@H](N)c1ccccc1 [(S)-α-propylbenzylamine] | 10 | 240 | 749% | 2 |  |  |  | relative activity to (S)-α-MBA measured with OATA WT, OATA W58A [4]: 20% |
